{"source": "patent US6335443B1", "about": "“Chemical synthesis of exochelins” (Keystone Biomedical, Inc., priority 1998, dated 2002)", "key": {"ferri-Exochelin 758SM [1]": {"system": "ferri-Exochelin 758SM", "assay": "Capacity to remove iron from Ferri-Exochelin 758SM in the same vial (772SM(R) vs 772SM(S))", "assay_type": "binding", "settings": "Table 3, 772SM(R), 772SM(S) and 758SM in the same vial", "description": "To further assess the relative affinities of the stereoisomers desferri-Exochelin 772SM(R) and 772SM(S) for iron, their capacity to remove iron from a different exochelin species in the same vial were compared.\nIn the experiment,15.6 μg of 1.1% iron-saturated synthetic Exochelin 772SM(R) and 17.4 μg of 1.0% iron-saturated synthetic Exochelin 772SM(S) was mixed with 13.5 μg of 100% iron-saturated native Exochelin 758SM."}, "ferri-Exochelin 758SM [2]": {"system": "ferri-Exochelin 758SM", "assay": "Capacity to remove iron from a different Exochelin species (Ferri-Exochelin 758SM)", "assay_type": "binding", "settings": "for % Iron-Saturation 0 h / % of Calculated Iron-Saturation at Equilibrium 0 h / % of Calculated Iron-Saturation at Equilibrium 1 h / % Iron-Saturation 1 h: Table 1; for % Iron-Saturation 0 h / % Iron-Saturation 0 hour / % Iron-Saturation 1 hour / % Iron-Saturation 1 h: mixed with ferri-Exochelin 758SM", "description": "C. Capacity to Remove Iron from a Different Exochelin Species. To assess the affinity of the synthetic desferri-Exochelin 772SM(R) for iron, its capacity to remove iron from a different Exochelin species, ferri-Exochelin 758SM, was evaluated. The capacity of synthetic and native desferri-Exochelin 772SM(R) to remove iron from ferri-Exochelin 758SM was also evaluated and compared. Either native or synthetic desferri-Exochelin 772SM(R) were independently mixed with ferri-Exochelin 758SM. The amount of iron acquired in 1 hour by the desferri-Exochelins was assayed by subjecting the Exochelin to reverse-phase HPLC on a phenyl column, as described above, and the area under the 450 nm absorbance peak was measured. The amount of iron-Exochelin was then calculated using a conversion factor derived from assaying known amounts of ferri-Exochelin 772SM(R).\nC. Capacity to Remove Iron from a Different Exochelin Species. To assess the affinity of the synthetic desferri-Exochelin 772SM(S) for iron, its capacity to remove iron from a different exochelin species, ferri-Exochelin 758SM was evaluated. The capacity of synthetic desferri-Exochelin 772SM(S) and native desferri-Exochelin 772SM(R) to remove iron from ferri-Exochelin 758SM was also evaluated and compared. Either synthetic desferri-Exochelin 772SM(S) or native desferri-Exochelin 772SM(R) was mixed with ferri-Exochelin 758SM. The amount of iron acquired by the desferri-exochelins after 1 hour was assayed by subjecting the molecule to reverse-phase HPLC on a phenyl column, as described above, and the area under the 450 nm absorbance peak was measured. The amount of iron-exochelin was then calculated using a conversion factor derived from assaying known amounts of ferri-Exochelin 772SM(R) and ferri-Exochelin 772SM(S)."}, "[3]": {"biological_target": "holo-transferrin (92% iron-saturated human transferrin) (Homo sapiens, UniProt P02787)", "sequence (P02787 20-698)": "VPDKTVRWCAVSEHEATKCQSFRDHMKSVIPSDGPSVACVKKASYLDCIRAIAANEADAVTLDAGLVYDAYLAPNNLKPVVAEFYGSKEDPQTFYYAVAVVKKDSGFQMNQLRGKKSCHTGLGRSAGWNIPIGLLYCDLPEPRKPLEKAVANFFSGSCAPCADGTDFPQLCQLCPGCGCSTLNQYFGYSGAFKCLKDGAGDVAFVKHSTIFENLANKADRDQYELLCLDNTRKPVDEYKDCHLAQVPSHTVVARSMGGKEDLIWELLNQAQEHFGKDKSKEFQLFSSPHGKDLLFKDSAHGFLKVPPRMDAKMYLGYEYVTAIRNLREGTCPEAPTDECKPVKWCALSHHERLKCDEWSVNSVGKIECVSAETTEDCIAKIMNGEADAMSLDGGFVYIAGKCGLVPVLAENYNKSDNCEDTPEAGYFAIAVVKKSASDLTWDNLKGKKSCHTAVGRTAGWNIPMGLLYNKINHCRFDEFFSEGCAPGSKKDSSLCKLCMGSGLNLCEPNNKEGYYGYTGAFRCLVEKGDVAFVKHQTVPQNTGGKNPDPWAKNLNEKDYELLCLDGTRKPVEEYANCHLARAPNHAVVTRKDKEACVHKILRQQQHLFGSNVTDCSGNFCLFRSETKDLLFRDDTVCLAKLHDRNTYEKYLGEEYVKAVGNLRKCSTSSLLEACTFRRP", "assay": "Capacity to remove iron from holo-transferrin (92% iron-saturated human transferrin)", "assay_type": "biochemical", "settings": "Fe3+:desferri-Exochelin 10:1", "description": "(§1) A. 40% Iron-Saturated Human Transferrin. To assess the capacity of the 3 different desferri-Exochelins to remove iron from 40% iron-saturated human transferrin, each of them was incubated for 1, 3, and 24 hours with 40% iron-saturated transferrin such that the ratio of Fe^3+: desferri-Exochelin equaled 10:1. The incubation was carried out in PBS, pH 7.4. Afterwards, the Exochelin and transferrin were separated from each other by centrifugation through a 10,000 dalton cut-off filter. The transferrin (mass 76,000 daltons) was completely excluded by this filter whereas 85% of the Exochelin (mass<1,000) was recovered in the filtrate. To determine the total amount of exochelin recovered, the exochelin in the filtrate was saturated with a 20:1 molar excess of ferric ammonium citrate and subjected to reverse-phase HPLC as described above. To determine the amount of iron-saturated Exochelin in the filtrate at each time point, the filtrate was subjected to reverse-phase HPLC without the addition of iron. The % iron-saturation was calculated as follows: [formula]\nB. Holo-Transferrin (92% Iron-Saturated Human Transferrin). To assess the capacity of the 3 different desferri-Exochelins to remove iron from holo-transferrin (92% iron-saturated human transferring, each of them was incubated for 1, 3, and 24 h with 92% iron-saturated transferrin such that the ratio of Fe^3+: desferri-Exochelin equaled 10:1, as in the aforementioned study with 40% iron-saturated transferrin. The % iron-saturation of the Exochelins was assayed as above."}, "[4]": {"biological_target": "human apotransferrin (<0.7% iron-saturated) (Homo sapiens, UniProt P02787)", "sequence (P02787 20-698)": "as above", "assay": "Control incubation with human apotransferrin (<0.7% iron-saturated)", "assay_type": "biochemical", "settings": "apotransferrin 38 mg/ml", "description": "as §1\nC. Apotransferrin (<0.7% Iron-Saturated Human Transferrin). As a control, the three desferri-exochelins were incubated for 3 h and 24 h with human apotransferrin (<0.7% iron-saturated) at a concentration of 38 mg/ml, the same concentration of protein as in the study utilizing 92% iron-saturated transferrin in B above. None of the desferri-exochelins acquired appreciable amounts of iron (Table 6)."}, "[5]": {"biological_target": "T1, 40% iron-saturated human transferrin (Homo sapiens, UniProt P02787)", "T1 sequence (P02787 20-698)": "as above", "assay": "Capacity to remove iron from 40% iron-saturated human transferrin", "assay_type": "biochemical", "settings": "Fe3+:desferri-Exochelin 10:1, PBS pH 7.4"}, "[6]": {"biological_target": "T1, 40% iron-saturated human transferrin", "assay": "Capacity to remove iron from 40% iron-saturated human transferrin", "assay_type": "biochemical", "settings": "Fe3+:desferri-Exochelin 10:1, PBS pH 7.4", "description": "as §1", "remark": "listed apart in the source"}, "[7]": {"settings": "listed as Native Desferri-Exochelin 772SM(R)"}, "[8]": {"settings": "listed as native desferri-exochelin 772SM(R)"}, "[9]": {"settings": "assuming comparable affinities for iron, 15.1 µg 772SM(R), Experiment I"}, "[10]": {"settings": "assuming comparable affinities for iron, 15.8 µg 772SM(R), Experiment II"}}, "note": "Several values for one entry are separate records, joined by “and”; a condition that tells them apart may be missing. Equal entries are not always repeated.", "data": [{"substance": "Exochelin 758SM [Native 758SM, reference compound]", "values": [{"measurement": "% Iron-Saturation 0 hour", "setting": "ferri-Exochelin 758SM [1]; 0 hour", "result": 100, "unit": "%"}, {"measurement": "% Iron-Saturation 1 hour", "setting": "ferri-Exochelin 758SM [1]; 1 hour", "result": 40.0, "unit": "%"}, {"measurement": "% Iron-Saturation 0 h", "setting": "ferri-Exochelin 758SM [2]", "result": 100, "unit": "%"}, {"measurement": "% Iron-Saturation 0 hour", "setting": "ferri-Exochelin 758SM [2]; Table 2, 0 hour", "result": 100, "unit": "%"}, {"measurement": "% Iron-Saturation 1 hour", "setting": "ferri-Exochelin 758SM [2]; Table 2, with native desferri-Exochelin 772SM(R)", "result": 61.7, "unit": "%"}, {"measurement": "% Iron-Saturation 1 hour", "setting": "ferri-Exochelin 758SM [2]; Table 2, with synthetic desferri-Exochelin 772SM(R)", "result": 55.9, "unit": "%"}, {"measurement": "% Iron-Saturation 1 hour", "setting": "ferri-Exochelin 758SM [2]; Table 2, with synthetic desferri-Exochelin 772SM(S)", "result": 54.1, "unit": "%"}]}, {"substance": "Exochelin 772SM(R) [Native 772SM(R), reference compound]", "values": [{"measurement": "Iron-Saturation 0 h", "setting": "[3]; 0 h", "result": 2.8, "unit": "%"}, {"measurement": "Iron-Saturation 1 h", "setting": "[3]; 1 h", "result": 11.6, "unit": "%"}, {"measurement": "Iron-Saturation 3 h", "setting": "[3]; 3 h", "result": 19.0, "unit": "%"}, {"measurement": "Iron-Saturation 24 h", "setting": "[3]; [7]", "result": 54.1, "unit": "%"}, {"measurement": "Iron-Saturation 24 h", "setting": "[3]; [8]", "result": 54.1, "unit": "%"}, {"measurement": "Iron-Saturation 0 h", "setting": "[4]; 0 h", "result": 2.8, "unit": "%"}, {"measurement": "Iron-Saturation 3 h", "setting": "[4]; 3 h", "result": 9.3, "unit": "%"}, {"measurement": "Iron-Saturation 24 h", "setting": "[4]; 24 h", "result": 6.8, "unit": "%"}, {"measurement": "Iron-Saturation 0 h", "setting": "[5]", "result": 2.8, "unit": "%"}, {"measurement": "Iron-Saturation 1 h", "setting": "[6]; 1 h", "result": 9.3, "unit": "%"}, {"measurement": "Iron-Saturation 3 h", "setting": "[6]; 3 h", "result": 13.8, "unit": "%"}, {"measurement": "Iron-Saturation 24 h", "setting": "[6]; [7]", "result": 34.0, "unit": "%"}, {"measurement": "Iron-Saturation 24 h", "setting": "[6]; [8]", "result": 34.0, "unit": "%"}, {"measurement": "% of Calculated Iron-Saturation at Equilibrium 0 h", "setting": "ferri-Exochelin 758SM [2]; [9]", "result": 6.8, "unit": "%"}, {"measurement": "% of Calculated Iron-Saturation at Equilibrium 0 h", "setting": "ferri-Exochelin 758SM [2]; [10]", "result": 5.0, "unit": "%"}, {"measurement": "% Iron-Saturation 0 h", "setting": "ferri-Exochelin 758SM [2]", "result": 2.8, "unit": "%"}, {"measurement": "% of Calculated Iron-Saturation at Equilibrium 1 h", "setting": "ferri-Exochelin 758SM [2]; [9]", "result": 85.8, "unit": "%"}, {"measurement": "% of Calculated Iron-Saturation at Equilibrium 1 h", "setting": "ferri-Exochelin 758SM [2]; [10]", "result": 81.6, "unit": "%"}, {"measurement": "% of Calculated Iron-Saturation at Equilibrium 1 h", "setting": "ferri-Exochelin 758SM [2]; assuming comparable affinities for iron, listed as native Exochelin 772SM(R)", "result": "85.8% and 81.6%"}, {"measurement": "% Iron-Saturation 1 h", "setting": "ferri-Exochelin 758SM [2]; 15.1 µg 772SM(R), Experiment I", "result": 46.4, "unit": "%"}, {"measurement": "% Iron-Saturation 1 h", "setting": "ferri-Exochelin 758SM [2]; 15.8 µg 772SM(R), Experiment II", "result": 45.6, "unit": "%"}, {"measurement": "% Iron-Saturation 1 h", "setting": "ferri-Exochelin 758SM [2]; listed as native Exochelin 772SM(R)", "result": "46.4% and 45.6%"}, {"measurement": "% of Calculated Iron-Saturation at Equilibrium 0 hour", "setting": "ferri-Exochelin 758SM [2]; Table 2, 0 hour, assuming comparable affinities for iron", "result": 5.4, "unit": "%"}, {"measurement": "% Iron-Saturation 0 hour", "setting": "ferri-Exochelin 758SM [2]; Table 2, 0 hour", "result": 2.8, "unit": "%"}, {"measurement": "% of Calculated Iron-Saturation at Equilibrium 1 hour", "setting": "ferri-Exochelin 758SM [2]; Table 2, assuming comparable affinities for iron", "result": 88.7, "unit": "%"}, {"measurement": "% of Calculated Iron-Saturation at Equilibrium 1 hour", "setting": "ferri-Exochelin 758SM [2]; Table 2, assuming comparable affinities for iron, listed as native Exochelin 772SM(R)", "result": 88.7, "unit": "%"}, {"measurement": "% Iron-Saturation 1 hour", "setting": "ferri-Exochelin 758SM [2]; Table 2", "result": 46.2, "unit": "%"}]}]}
